From PubChem BioAssay AID1963830 (Molecular Pharmacology Branch, DTP, NCI, 2024)

Tested on: 922993-354-T-J3-PDC complex spheroid viability
Test: Anticancer human tumor 922993-354-T-J3-PDC patient-derived endometrial carcinoma cell line growth inhibition [POLQ]
Details: for IC50: curve of first compound; for viability, T/C: stronger effect = lower value
Procedure, shortened: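 Patient-derived tumour cells were co-cultured with HUVEC and mesenchymal stem cells as multicellular spheroids at 37 °C. They were treated with POLQ inhibitors (novobiocin, ART-558, RP6685) alone or combined with other agents. Top concentrations were at or near clinical Cmax (otherwise 10 microM; SN-38 at 1 microM), decreasing in half-log steps.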

[1] = second compound 0.0316 µM, first compound 0.0316 µM
[2] = second compound 0.0316 µM, first compound 0.1 µM
[3] = second compound 0.0316 µM, first compound 0.316 µM
[4] = second compound 0.0316 µM, first compound 1 µM
[5] = second compound 0.0316 µM, first compound 3.16 µM
[6] = second compound 0.0316 µM, first compound 10 µM
[7] = second compound 0.1 µM, first compound 0.0316 µM
[8] = second compound 0.1 µM, first compound 0.1 µM
[9] = second compound 0.1 µM, first compound 0.316 µM
[10] = second compound 0.1 µM, first compound 1 µM
[11] = second compound 0.1 µM, first compound 3.16 µM
[12] = second compound 0.1 µM, first compound 10 µM
[13] = second compound 0.316 µM, first compound 0.0316 µM
[14] = second compound 0.316 µM, first compound 0.1 µM
[15] = second compound 0.316 µM, first compound 0.316 µM
[16] = second compound 0.316 µM, first compound 1 µM
[17] = second compound 0.316 µM, first compound 3.16 µM
[18] = second compound 0.316 µM, first compound 10 µM
[19] = second compound 1 µM, first compound 0.0316 µM
[20] = second compound 1 µM, first compound 0.1 µM
[21] = second compound 1 µM, first compound 0.316 µM
[22] = second compound 1 µM, first compound 1 µM
[23] = second compound 1 µM, first compound 3.16 µM
[24] = second compound 1 µM, first compound 10 µM
[25] = second compound 3.16 µM, first compound 0.0316 µM
[26] = second compound 3.16 µM, first compound 0.1 µM
[27] = second compound 3.16 µM, first compound 0.316 µM
[28] = second compound 3.16 µM, first compound 1 µM
[29] = second compound 3.16 µM, first compound 3.16 µM
[30] = second compound 3.16 µM, first compound 10 µM
[31] = second compound 10 µM, first compound 0.0316 µM
[32] = second compound 10 µM, first compound 0.1 µM
[33] = second compound 10 µM, first compound 0.316 µM
[34] = second compound 10 µM, first compound 1 µM
[35] = second compound 10 µM, first compound 3.16 µM
[36] = second compound 10 µM, first compound 10 µM
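Also: spheroids exposed to the agents for one week.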
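For viability, T/C in this document: 100% = DMSO vehicle control wells.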

## Nc1ccn(C2OC(CO)C(O)C2(F)F)c(=O)n1 (stereo unspecified) + Cc1cccc(N(C)C(=O)C2C(O)CCN2c2nc(C)cc(C(F)(F)F)c2C#N)c1
Second compound 0.0316 µM
  IC50: < 31.6 nM
Second compound 0.1 µM
  IC50: < 31.6 nM
Second compound 0.316 µM
  IC50: < 31.6 nM
Second compound 1 µM
  IC50: < 31.6 nM
Second compound 3.16 µM
  IC50: < 31.6 nM
Second compound 10 µM
  IC50: < 31.6 nM
[1]
  viability, T/C: 11.1%
[2]
  viability, T/C: 10.3%
[3]
  viability, T/C: 9.57%
[4]
  viability, T/C: 11.8%
[5]
  viability, T/C: 9.18%
[6]
  viability, T/C: 9.18%
[7]
  viability, T/C: 14.8%
[8]
  viability, T/C: 10.9%
[9]
  viability, T/C: 11.3%
[10]
  viability, T/C: 10.7%
[11]
  viability, T/C: 10.7%
[12]
  viability, T/C: 11%
[13]
  viability, T/C: 11.9%
[14]
  viability, T/C: 11.5%
[15]
  viability, T/C: 11.9%
[16]
  viability, T/C: 9.92%
[17]
  viability, T/C: 8.14%
[18]
  viability, T/C: 9.97%
[19]
  viability, T/C: 12.6%
[20]
  viability, T/C: 9.47%
[21]
  viability, T/C: 8.22%
[22]
  viability, T/C: 8.9%
[23]
  viability, T/C: 7.29%
[24]
  viability, T/C: 10.3%
[25]
  viability, T/C: 11.3%
[26]
  viability, T/C: 10.2%
[27]
  viability, T/C: 10.6%
[28]
  viability, T/C: 7.56%
[29]
  viability, T/C: 9.43%
[30]
  viability, T/C: 10.6%
[31]
  viability, T/C: 7.43%
[32]
  viability, T/C: 8.87%
[33]
  viability, T/C: 7.1%
[34]
  viability, T/C: 6.45%
[35]
  viability, T/C: 8.61%
[36]
  viability, T/C: 8.92%

## COc1cccc(OCCCN)c1-c1cc(Nc2cnc(C#N)cn2)n[nH]1 + Cc1cccc(N(C)C(=O)C2C(O)CCN2c2nc(C)cc(C(F)(F)F)c2C#N)c1
Second compound 0.0316 µM
  IC50: 603 nM
Second compound 0.1 µM
  IC50: 585 nM
Second compound 0.316 µM
  IC50: 610 nM
Second compound 1 µM
  IC50: 599 nM
Second compound 3.16 µM
  IC50: 436 nM
Second compound 10 µM
  IC50: 140 nM
Second compound 0.0316 µM, first compound 0.00316 µM
  viability, T/C: 107%
Second compound 0.0316 µM, first compound 0.01 µM
  viability, T/C: 107%
[1]
  viability, T/C: 103%
[2]
  viability, T/C: 104%
[3]
  viability, T/C: 89%
[4]
  viability, T/C: 19.8%
Second compound 0.1 µM, first compound 0.00316 µM
  viability, T/C: 104%
Second compound 0.1 µM, first compound 0.01 µM
  viability, T/C: 104%
[7]
  viability, T/C: 103%
[8]
  viability, T/C: 97.7%
[9]
  viability, T/C: 91.3%
[10]
  viability, T/C: 14.5%
Second compound 0.316 µM, first compound 0.00316 µM
  viability, T/C: 102%
Second compound 0.316 µM, first compound 0.01 µM
  viability, T/C: 101%
[13]
  viability, T/C: 101%
[14]
  viability, T/C: 98%
[15]
  viability, T/C: 93.5%
[16]
  viability, T/C: 17.2%
Second compound 1 µM, first compound 0.00316 µM
  viability, T/C: 102%
Second compound 1 µM, first compound 0.01 µM
  viability, T/C: 98.8%
[19]
  viability, T/C: 103%
[20]
  viability, T/C: 98%
[21]
  viability, T/C: 92.4%
[22]
  viability, T/C: 16%
Second compound 3.16 µM, first compound 0.00316 µM
  viability, T/C: 103%
Second compound 3.16 µM, first compound 0.01 µM
  viability, T/C: 106%
[25]
  viability, T/C: 101%
[26]
  viability, T/C: 99.5%
[27]
  viability, T/C: 65.1%
[28]
  viability, T/C: 10.7%
Second compound 10 µM, first compound 0.00316 µM
  viability, T/C: 99.2%
Second compound 10 µM, first compound 0.01 µM
  viability, T/C: 101%
[31]
  viability, T/C: 94.3%
[32]
  viability, T/C: 65.5%
[33]
  viability, T/C: 13.2%
[34]
  viability, T/C: 9.72%

## CC1COCCN1c1cc(C2(O)CC3CCC(C2)O3)c2cnn(-c3ccn[nH]3)c2n1 (stereo unspecified) + COC1C(OC(N)=O)C(O)C(Oc2ccc3c(O)c(NC(=O)c4ccc(O)c(CC=C(C)C)c4)c(=O)oc3c2C)OC1(C)C
Second compound 0.0316 µM
  IC50: 337 nM
Second compound 0.1 µM
  IC50: 371 nM
Second compound 0.316 µM
  IC50: 361 nM
Second compound 1 µM
  IC50: 383 nM
Second compound 3.16 µM
  IC50: 361 nM
Second compound 10 µM
  IC50: 393 nM
[1]
  viability, T/C: 101%
[2]
  viability, T/C: 80.6%
[3]
  viability, T/C: 54.1%
[4]
  viability, T/C: 23.1%
[5]
  viability, T/C: 8.69%
[6]
  viability, T/C: 11.8%
[7]
  viability, T/C: 107%
[8]
  viability, T/C: 68.5%
[9]
  viability, T/C: 66.4%
[10]
  viability, T/C: 26.7%
[11]
  viability, T/C: 10.4%
[12]
  viability, T/C: 10.7%
[13]
  viability, T/C: 96%
[14]
  viability, T/C: 89.6%
[15]
  viability, T/C: 53.3%
[16]
  viability, T/C: 20.5%
[17]
  viability, T/C: 9.11%
[18]
  viability, T/C: 10.8%
[19]
  viability, T/C: 99.5%
[20]
  viability, T/C: 93.7%
[21]
  viability, T/C: 55.1%
[22]
  viability, T/C: 21.1%
[23]
  viability, T/C: 8.57%
[24]
  viability, T/C: 11.2%
[25]
  viability, T/C: 100%
[26]
  viability, T/C: 84.9%
[27]
  viability, T/C: 54.1%
[28]
  viability, T/C: 23.2%
[29]
  viability, T/C: 10.7%
[30]
  viability, T/C: 9.88%
[31]
  viability, T/C: 93.8%
[32]
  viability, T/C: 76.1%
[33]
  viability, T/C: 60.5%
[34]
  viability, T/C: 17.4%
[35]
  viability, T/C: 10.4%
[36]
  viability, T/C: 10.3%
